The text below walks through data of US20210071180A1, “MICRORNA 584-5P COMPOSITIONS AND METHODS FOR TREATING CANCER” (BOARD OF REGENTS, THE UNIVERSY OF TEXAS SYSTEM, priority 2018, published 2021).

What all share (format): cell-based
For one series, the system named is PGC-1α. The series can be described thus: qRT-PCR of PGC-1α expression. As to conditions: miR-584-5p-treated MB cells. From the text: One such gene is peroxisome proliferator-activated receptor gamma coactivator 1-α, which codes for PGC-1α protein, which HDAC1 inhibits in brown adipocytes (Li, F. et al. J Biol Chem 291, 4523-4536, (2016)). The results disclosed herein reveal that PGC-1α expression is increased in miR-584-5p-treated MB cells (FIG. 10). […] The data in FIG. 10 represent Log 2 ratio tumor/cerebellum control. Data mined from GSE28245. ***, p<0.001; ** , p<0.01; * , p<0.05.
VCR disrupts the integrity of the mitotic spindle and destabilizes microtubules (George, P., Journey, L. J. & Goldstein, M. N. J Natl Cancer Inst 35, 355-375 (1965)). Therefore, it was tested whether miR-584-5p and its target genes might affect microtubule dynamics. First, expression of tubulins was deteremined because VCR resistance has been associated with altered expression of tubulin isotypes (Sirotnak, F. M., Danenberg, K. D., Chen, J., Fritz, F. & Danenberg, P. V. Biochem Biophys Res Commun 269, 21-24, (2000)). […] In FIG. 12A, the p-values were calculated using standard Student t-tests. Error bars represent mean±SEM. ****, p<0.0001. […] The p-values were calculated using standard Student t-tests. Error bars represent mean±SEM. […] In FIG. 11F, the p-values were calculated using standard Student t-tests. […] In FIG. 11H, The p-values were calculated using standard Student t-tests. […] Quantitative real-time PCR. […]
(In qPCR the cycle at which signal appears reflects the starting amount.)

The subject of another series is eIF4E3. The series can be described thus: qPCR and Western blot of eIF4E3 in MB cells. As to conditions: transcript and protein levels, all cell lines tested.
Series [1] has as its system MB cells. Put plainly: Immunofluorescence of mitotic spindles / mitotic catastrophe. How it is done: DNA is stained with DAPI (blue), whereas spindle is stained with β-tubulin (red) (below).
Immunofluorescence and Western blot analysis Immunofluorescence analyses was carried out on cells fixed in 4% paraformaldehyde (Imam, J. S. et al. PLoS One 7, e52397, (2012)). […]
VCR disrupts the integrity of the mitotic spindle and destabilizes microtubules (George, P., Journey, L. J. & Goldstein, M. N. J Natl Cancer Inst 35, 355-375 (1965)). […] In FIG. 12A, the p-values were calculated using standard Student t-tests. […] The p-values were calculated using standard Student t-tests. […] In FIG. 11F, the p-values were calculated using standard Student t-tests. […] In FIG. 11H, The p-values were calculated using standard Student t-tests. […] Quantitative real-time PCR. […]

In series [2] the test system is MB cells. The series can be described thus: Annexin V-FITC FACS analysis of apoptosis. Conditions: Annexin V staining. As for the experimental part:
To gain more insight into the tumor-suppressing and VCR-sensitizing activities of miR-584-5p, it was determined how the miR-584-5p mimic affected cell cycle progression of MB cells. […] Bar graphs show DNA histograms quantified using the FlowJo software. In FIG. 9A, the p-values were determined by two-way ANOVA followed by Tukey's multiple-comparisons test. Error bars represent mean±SEM. […] In FIG. 9B, the p-values were calculated using standard Student t-tests. Error bars represent mean±SEM. […] Next, it was determined whether miR-584-5p's effect on cell cycle progression may be mediated via its target genes eIF4E3/HDAC1. […] Bar graphs show dot plots quantified using the FlowJo software. Next, it was tested whether miR-584-5p-induced cell cycle arrest led to apoptosis of MB cells. […] In FIG. 8C, the bar graphs reflect DNA histograms quantified using the FlowJo software and in FIG. 8D and FIG. 9C, the bar graphs show dot plots quantified using the FlowJo software. The p-values for panels 8A-D and FIG. 9C were determined by two-way ANOVA followed by Tukey's multiple-comparisons test. Error bars represent mean±SEM. ****, p<0.0001; ***, p<0.001; **, p<0.01; *, p<0.05.
Flow cytometry analysis of cell cycle and apoptosis. […] Cells were analyzed using either FACScantoII or LSRII cytometers, and data were quantified using FlowJo 10.2 software.

In the case of “miR-584-5p: microRNA mimic; nucleotide sequence UUAUGGUUUGCCUGGGACUGAG (SEQ ID NO: 1); purchased from Thermofisher (chemistry not given here)”, the PGC-1α expression entry with PGC-1α was “increased”. The “expression of eIF4E3” value in the series with eIF4E3 is recorded as “significantly reduced expression”. Also, the mitotic catastrophe features entry in the series with MB cells [1] (miR-584-5p-overexpressing MB cells) is “many cells with multipolar metaphase/anaphase, spindles with unorganized poles, micronuclei, and aneuploidy”. The mitotic spindle defects result with MB cells [1] (β-tubulin/DAPI staining) is reported as “variety of mitotic spindle defects”. In the series with MB cells [2], the “apoptosis of MB cells” value was “increased apoptosis”.
